Test results: patent EP0090603A2, “Antibacterial compounds” (BEECHAM GROUP PLC, priority 1982, dated 1983)
Converted amounts (≈) assume the structure as drawn.

How the values were obtained:
M. dispar NCTC 10125 = experiment: MIC against Mycoplasma, in vitro agar dilution; assay type: cell-based; details: 144 h; Friis broth solidified with 0.9% agarose, 10^3 to 10^5 C.F.U., 6 days at 37°C; read-out: MIC's against M. dispar NCTC 10125
M. hyorhinis ATCC 23234 = experiment: MIC against Mycoplasma, in vitro agar dilution; assay type: cell-based; details: Mesomycoplasma hyorhinis, ATCC23234, 144 h; Friis broth solidified with 0.9% agarose, 10^3 to 10^5 C.F.U., 6 days at 37°C; read-out: MIC's against M. hyorhinis ATCC 23234
[1] = system: M. suipneumoniae PW/C/210; experiment: MIC against Mycoplasma, in vitro agar dilution; assay type: cell-based; details: Mesomycoplasma hyopneumoniae, 144 h; Friis broth solidified with 0.9% agarose, 10^3 to 10^5 C.F.U., 6 days at 37°C; read-out: MIC's against M. suipneumoniae PW/C/210
E. coli NCTC 10418 = experiment: MIC against Veterinary Bacteria, in vitro agar dilution; details: Escherichia coli, NCTC10418, 18 h, read-out: MIC's against E. coli NCTC 10418
Protocol: (§1) The activity of the compounds of the Examples against various veterinarily important bacteria, was assayed in vitro using two-fold serial dilutions in Diagnostic Sensitivity Test Agar inoculated with 10^4 organisms.

[2] = system: M. suipneumoniae NCTC 10110; experiment: MIC against Mycoplasma, in vitro agar dilution; assay type: cell-based; details: Mesomycoplasma hyopneumoniae, NCTC10110, 144 h; Friis broth solidified with 0.9% agarose, 10^3 to 10^5 C.F.U., 6 days at 37°C; read-out: MIC's against M. suipneumoniae NCTC 10110
M. hyorhinis ATCC 25021 = experiment: MIC against Mycoplasma, in vitro agar dilution; assay type: cell-based; details: Mesomycoplasma hyorhinis, ATCC25021, 144 h; Friis broth solidified with 0.9% agarose, 10^3 to 10^5 C.F.U., 6 days at 37°C; read-out: MIC's against M. hyorhinis ATCC 25021
M. suipneumoniae Str. 11 = experiment: MIC against Mycoplasma, in vitro agar dilution; assay type: cell-based; details: Mesomycoplasma hyopneumoniae, STR.11, 144 h; Friis broth solidified with 0.9% agarose, 10^3 to 10^5 C.F.U., 6 days at 37°C; read-out: MIC's against M. suipneumoniae Str. 11
Past. multocida PA2 = experiment: MIC against Veterinary Bacteria, in vitro agar dilution; details: Pasteurella multocida, PA2, 18 h, read-out: MIC's against Past. multocida PA2
Protocol: as §1

M. pneumoniae ATCC 15492 = experiment: MIC against Mycoplasma, in vitro agar dilution; assay type: cell-based; details: Mycoplasmoides pneumoniae, ATCC15492, 144 h; Friis broth solidified with 0.9% agarose, 10^3 to 10^5 C.F.U., 6 days at 37°C; read-out: MIC's against M. pneumoniae ATCC 15492
Past. haemolytica PA5 = experiment: MIC against Veterinary Bacteria, in vitro agar dilution; details: Mannheimia haemolytica, PA5, 18 h, read-out: MIC's against Past. haemolytica PA5
Protocol: as §1

M. suipneumoniae UCD 1 = experiment: MIC against Mycoplasma, in vitro agar dilution; assay type: cell-based; details: Mesomycoplasma hyopneumoniae, UCD1, 144 h; Friis broth solidified with 0.9% agarose, 10^3 to 10^5 C.F.U., 6 days at 37°C; read-out: MIC's against M. suipneumoniae UCD 1
Strep. agalactiae SPA1 = experiment: MIC against Veterinary Bacteria, in vitro agar dilution; details: Streptococcus agalactiae, SPA1, 18 h, read-out: MIC's against Strep. agalactiae SPA1
Protocol: as §1

Bord. bronchiseptica B09 = experiment: as above; details: Bordetella bronchiseptica, B09, 18 h, read-out: MIC's against Bord. bronchiseptica B09
Protocol: as §1

Bord. bronchiseptica B08 = experiment: as above; details: Bordetella bronchiseptica, B08, 18 h, read-out: MIC's against Bord. bronchiseptica B08
Protocol: as §1

Staph. aureus Oxford = experiment: as above; details: Staphylococcus aureus, 18 h, read-out: MIC's against Staph. aureus Oxford
Protocol: as §1

[3] = system: Staph. aureus B4 (pen. resistant); experiment: as above; details: Staphylococcus aureus, 18 h, read-out: MIC's against Staph. aureus B4 (pen. resistant)
Protocol: as §1

M. suipneumoniae LABER = experiment: MIC against Mycoplasma, in vitro agar dilution; assay type: cell-based; details: Mesomycoplasma hyopneumoniae, 144 h; Friis broth solidified with 0.9% agarose, 10^3 to 10^5 C.F.U., 6 days at 37°C; read-out: MIC's against M. suipneumoniae LABER
E. coli E1 = experiment: MIC against Veterinary Bacteria, in vitro agar dilution; details: Escherichia coli, E1, 18 h, read-out: MIC's against E. coli E1
Protocol: as §1

S. dublin S7 = experiment: as above; details: Salmonella enterica, S7, 18 h, read-out: MIC's against S. dublin S7
Protocol: as §1

[4] = system: M. suipneumoniae ATCC 25095; experiment: MIC against Mycoplasma, in vitro agar dilution; assay type: cell-based; details: Mesomycoplasma hyopneumoniae, ATCC25095, 144 h; Friis broth solidified with 0.9% agarose, 10^3 to 10^5 C.F.U., 6 days at 37°C; read-out: MIC's against M. suipneumoniae ATCC 25095
S. typhimurium S18 = experiment: MIC against Veterinary Bacteria, in vitro agar dilution; details: Salmonella enterica, TYPHIMURIUM, 18 h, read-out: MIC's against S. typhimurium S18
Protocol: as §1

[5] = system: Staph. aureus 152 (pen. sens); experiment: as above; details: Staphylococcus aureus, 18 h, read-out: MIC's against Staph. aureus 152 (pen. sens)
Protocol: as §1

[6] = system: Strep. suis (group D) SPS11; experiment: as above; details: Streptococcus suis, 18 h, read-out: MIC's against Strep. suis (group D) SPS11
Protocol: as §1

M. gallisepticum S6 = experiment: MIC against Mycoplasma, in vitro agar dilution; assay type: cell-based; details: Mycoplasmoides gallisepticum, S6, 144 h; Friis broth solidified with 0.9% agarose, 10^3 to 10^5 C.F.U., 6 days at 37°C; read-out: MIC's against M. gallisepticum S6

Row | Structure (SMILES) | MIC (M. dispar NCTC 10125) [µg/mL] | MIC (M. hyorhinis ATCC 23234) [µg/mL] | MIC [1] [µg/mL] | MIC (E. coli NCTC 10418) [µg/mL] | MIC [2] [µg/mL] | MIC (M. hyorhinis ATCC 25021) [µg/mL] | MIC (M. suipneumoniae Str. 11) [µg/mL] | MIC (Past. multocida PA2) [µg/mL] | MIC (Past. haemolytica PA5) [µg/mL] | MIC (M. suipneumoniae UCD 1) [µg/mL] | MIC (Strep. agalactiae SPA1) [µg/mL] | MIC (Bord. bronchiseptica B09) [µg/mL] | MIC (Bord. bronchiseptica B08) [µg/mL] | MIC (Staph. aureus Oxford) [µg/mL] | MIC [3] [µg/mL] | MIC (M. suipneumoniae LABER) [µg/mL] | MIC (E. coli E1) [µg/mL] | MIC (S. dublin S7) [µg/mL] | MIC [4] [µg/mL] | MIC (S. typhimurium S18) [µg/mL] | other results
1 | CC(CC1OCC(CC2OC2C(C)C(C)O)C(O)C1O)=C(C)C(=O)O [Example 4, Sodium 4-[5S-(2S, 35-epoxy-5S-hydroxy-4S-methylhexyl)-3R,4R-dihydroxytetrahydropyran-2S-yl]-2,3-dimethylbut-2(E)-enoate] | 0.05 | 0.1 | 0.1 | > 80 | 0.25 | 0.1 | 0.1 | 2.5 | 10 | 0.25 | 1.25 | 40 | > 80 | 1.25 | 1.25 | 0.1 | > 80 | > 80 | 0.25 | > 80 | MIC (M. pneumoniae ATCC 15492): 5 µg/mL; MIC [5]: 1.25 µg/mL; MIC [6]: 20 µg/mL; MIC (M. gallisepticum S6): 5 µg/mL
2 | CCOC(=O)C(C)=C(C)CC1OCC(CC2OC2C(C)C(C)O)C(O)C1O [Example 1, Ethyl 4-[5S-(2S,3S-epoxy-5S-hydroxy-4S-methylhexyl)-3R,4R-dihydroxytetrahydropyran-2S-yl]-2,3-dimethylbut-2(E)-enoate] | 0.25 (≈ 0.647 µM) | 0.5 (≈ 1.29 µM) | 0.5 (≈ 1.29 µM) | > 80 | 1 (≈ 2.59 µM) | 0.5 (≈ 1.29 µM) | 1 (≈ 2.59 µM) | 1.25 (≈ 3.23 µM) | 20 (≈ 51.7 µM) | 2.5 (≈ 6.47 µM) | 5 (≈ 12.9 µM) | 80 (≈ 207 µM) | > 80 | 0.625 (≈ 1.62 µM) | 0.625 (≈ 1.62 µM) | 1 (≈ 2.59 µM) | > 80 | > 80 | 1 (≈ 2.59 µM) | > 80 | MIC (M. pneumoniae ATCC 15492): 10 µg/mL (≈ 25.9 µM); MIC [5]: 0.625 µg/mL (≈ 1.62 µM); MIC [6]: > 80 µg/mL; MIC (M. gallisepticum S6): > 10 µg/mL
3 | COC(=O)C(C)=C(C)CC1OCC(CC2OC2C(C)C(C)O)C(O)C1O [Example 2, Methyl 4-[5S-(2S,3S-epoxy-5S-hydroxy-4S-methylhexyl)-3R,4R-dihydroxytetrahydropyran-2S-yl]-2,3-dimethylbut-2(E)-enoate] | 1 (≈ 2.68 µM) | 5 (≈ 13.4 µM) | 5 (≈ 13.4 µM) | > 80 | 5 (≈ 13.4 µM) | 5 (≈ 13.4 µM) | 5 (≈ 13.4 µM) | 5 (≈ 13.4 µM) | 40 (≈ 107 µM) | 10 (≈ 26.8 µM) | 80 (≈ 215 µM) | 40 (≈ 107 µM) | > 80 | 5 (≈ 13.4 µM) | 5 (≈ 13.4 µM) | 5 (≈ 13.4 µM) | > 80 | > 80 | 5 (≈ 13.4 µM) | > 80 | MIC [5]: 5 µg/mL (≈ 13.4 µM); MIC [6]: > 80 µg/mL; MIC (M. gallisepticum S6): > 10 µg/mL
4 | CC(CC1OCC(CC2OC2C(C)C(C)O)C(O)C1O)=C(C)C(=O)OCc1cccc([N+](=O)[O-])c1 [Example 3, m-Nitrobenzyl 4-[5S-(2S,3S-epoxy-5S-hydroxy-4S-methylhexyl)-3R,4R-dihydroxytetrahydropyran-2S-yl]-2,3-di-methylbut-2(E)-enoate] | < 0.01 | 0.025 (≈ 0.0507 µM) | 0.025 (≈ 0.0507 µM) | > 80 | 0.05 (≈ 0.101 µM) | 0.025 (≈ 0.0507 µM) | 0.05 (≈ 0.101 µM) | 1.25 (≈ 2.53 µM) | 10 (≈ 20.3 µM) | 0.05 (≈ 0.101 µM) | 1.25 (≈ 2.53 µM) | 80 (≈ 162 µM) | 80 (≈ 162 µM) | 1.25 (≈ 2.53 µM) | 1.25 (≈ 2.53 µM) | 0.05 (≈ 0.101 µM) | > 80 | > 80 | 0.025 (≈ 0.0507 µM) | > 80 | MIC (M. pneumoniae ATCC 15492): 2.5 µg/mL (≈ 5.07 µM); MIC [5]: 1.25 µg/mL (≈ 2.53 µM); MIC [6]: 10 µg/mL (≈ 20.3 µM); MIC (M. gallisepticum S6): 5 µg/mL (≈ 10.1 µM)
